Results from PMC6407587, “Inhibition potential of phenolic constituents from the aerial parts of Tetrastigma hemsleyanum against soluble epoxide hydrolase and nitric oxide synthase” (Journal of Enzyme Inhibition and Medicinal Chemistry, 2019).
Where two headings read alike, the source gives them in different places.

Experiments:
sEH [1] = target: T1, sEH (Homo sapiens, UniProt P34913); assay: sEH inhibitory activity, fluorescence assay with PHOME substrate; format: biochemical; details: for inhibition at 100 µM / Inhibition on sEH at 100 µM (%): 100 µM compound, tested three times; for IC50: PHOME substrate, dose-dependent response curve
T1 sequence (P34913 1-555): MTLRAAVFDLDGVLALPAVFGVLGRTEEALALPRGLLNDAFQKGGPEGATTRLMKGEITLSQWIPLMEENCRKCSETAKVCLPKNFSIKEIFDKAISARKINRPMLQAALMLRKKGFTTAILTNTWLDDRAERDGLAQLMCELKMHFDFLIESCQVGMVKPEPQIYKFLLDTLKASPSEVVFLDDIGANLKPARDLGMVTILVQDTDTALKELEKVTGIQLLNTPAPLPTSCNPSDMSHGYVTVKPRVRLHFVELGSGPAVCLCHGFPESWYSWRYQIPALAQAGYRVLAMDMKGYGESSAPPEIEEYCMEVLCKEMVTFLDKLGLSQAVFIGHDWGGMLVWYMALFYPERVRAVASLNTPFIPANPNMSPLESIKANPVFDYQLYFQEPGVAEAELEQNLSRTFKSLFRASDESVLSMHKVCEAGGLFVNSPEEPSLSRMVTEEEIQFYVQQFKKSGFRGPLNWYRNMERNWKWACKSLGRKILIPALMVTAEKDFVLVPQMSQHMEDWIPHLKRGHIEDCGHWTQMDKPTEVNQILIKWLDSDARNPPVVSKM

[2] = test system: LPS-induced NO production in macrophage RAW 264.7 cells (iNOS); assay: Inhibition of LPS-induced NO production in RAW 264.7 macrophages (Griess reaction, measure of iNOS activity); format: cell-based; details: for IC50: means ± SE, n = 3;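 as to all read-outs here: cells pretreated with compound for 2 h, then stimulated 24 h with LPS at 500 ng/ml, supernatant nitrite quantified by absorbance at 550 nm against a nitrite standard curve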
sEH [3] = target: T1, sEH; assay: sEH binding mechanism, Dixon and Lineweaver-Burk plots at different substrate and inhibitor concentrations; format: biochemical; details: for Type of sEH inhibition: Dixon / Lineweaver-Burk plots; for Ki: Dixon plots
[4] = Mus musculus, RAW264.7, LPS-stimulated RAW264.7 cells
[5] = Mus musculus, 50 µM compound, LPS-stimulated RAW264.7 cells, read-out: Inhibition of NO production at 50 µM (%)
[6] = 50 µM compound, LPS-stimulated RAW264.7 cells
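For Cytotoxicity in RAW 264.7 cells (MTT) in this document: viability gauged by mitochondrial reductase turning MTT into formazan, optical density read at 570 nm, with untreated control cells set as 100% viability.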

Row | Compound | inhibition at 100 µM (sEH [1]) | IC50 (sEH [1]) | inhibition at 50 µM [2, 5] | Cytotoxicity in RAW 264.7 cells (MTT) (RAW 264.7 cells) | also measured
1 | O=c1cc(-c2ccc(O)cc2)oc2cc(O)cc(O)c12 [Compound 12, apigenin] | 92.4 ± 2% | 7.2 ± 0.3 µM | 98.9% | did not exhibit significant cytotoxicity | Type of sEH inhibition (sEH [3]): Non-competitive; Ki (sEH [3]): 24.4 µM; IC50 [2, 4]: 12.2 ± 0.1 µM
2 | COc1cc([C@@H]2Oc3c(OC)cc(CCCO)cc3[C@H]2CO)cc(OC)c1O [Compound 21] |  |  | 16.2% | did not exhibit significant cytotoxicity | Inhibition on sEH at 100 µM (%) (sEH [1]): N.I
3 | COc1cc([C@H]2Oc3c(OC)cc(CCCO)cc3[C@@H]2CO[C@@H]2O[C@H](CO)[C@@H](O)[C@H](O)[C@H]2O)ccc1O [Compound 20] |  |  | 13.9% | did not exhibit significant cytotoxicity | Inhibition on sEH at 100 µM (%) (sEH [1]): N.I
4 | O=c1c(O)c(-c2ccc(O)cc2)oc2cc(O)cc(O)c12 [Compound 10, kaempferol] | 58 ± 2% | 6.8 ± 2.4 µM | 93% | did not exhibit significant cytotoxicity | Type of sEH inhibition (sEH [3]): Non-competitive; Ki (sEH [3]): 18.6 µM; IC50 [2, 4]: 15.6 ± 1.6 µM
5 | O=C1C[C@@H](c2ccc(O)cc2)Oc2cc(O)ccc21 [Compound 11] | 34.5 ± 2.5% |  | 10.8% |  | 
6 | O=C1CC(c2ccc(O)c(O)c2)c2c(O)cc3c(c2O1)CC(O)C(c1ccc(O)c(O)c1)O3 (stereo not shown) [Compound 22] | 31.9 ± 4.5% |  | 18.3% | did not exhibit significant cytotoxicity | 
7 | OC[C@H]1O[C@@H](OCCc2ccccc2)[C@H](O)[C@@H](O)[C@@H]1O [Compound 34] | 13.3 ± 0.2% |  | 12.8% | did not exhibit significant cytotoxicity | 
8 | C[C@@H]1O[C@@H](OC[C@H]2O[C@@H](Oc3c(-c4ccc(O)cc4)oc4cc(O)cc(O)c4c3=O)[C@H](O)[C@@H](O)[C@H]2O)[C@H](O)[C@H](O)[C@H]1O [Compound 15] | 60.2 ± 0.5% | 18.3 ± 0.2 µM | 3% | did not exhibit significant cytotoxicity | 
9 | CC/C=C\CCO[C@@H]1O[C@H](CO)[C@@H](O)[C@H](O)[C@H]1O [Compound 37] | 24.6 ± 3.1% |  | 14.5% | did not exhibit significant cytotoxicity | 
10 | O=c1c(O[C@@H]2O[C@H](CO)[C@@H](O)[C@H](O)[C@H]2O)c(-c2ccc(O)cc2)oc2cc(O)cc(O)c12 [Compound 14] | 78 ± 1% | 21.3 ± 0.3 µM | 9% | did not exhibit significant cytotoxicity | 
11 | O=c1ccc2cc(O)c(O)cc2o1 [Compound 19] |  | 4.5 ± 0.2 µM | 50.1% | did not exhibit significant cytotoxicity | Ki (sEH [3]): 10.2 µM; IC50 [2, 4]: 47.3 ± 6.9 µM
12 | Oc1ccc(-c2ccc(O)c(O)c2)cc1O [Compound 33] | 19.4 ± 0.8% |  | 3% | did not exhibit significant cytotoxicity | 
13 | O=C(O)c1ccc(O)cc1 [Compound 25] | 42 ± 3.9% |  | 17% | did not exhibit significant cytotoxicity | 
14 | CC1OC(OCC2OC(OCCc3ccccc3)C(O)C(O)C2O)C(O)C(O)C1O (stereo not shown) [Compound 36] |  |  | 20.9% | did not exhibit significant cytotoxicity | Inhibition on sEH at 100 µM (%) (sEH [1]): N.I
15 | CC[C@H](/C=C/[C@@H](C)[C@H]1CC[C@H]2[C@@H]3CC=C4C[C@@H](O[C@@H]5O[C@H](CO)[C@@H](O)[C@H](O)[C@H]5O)CC[C@]4(C)[C@H]3CC[C@]12C)C(C)C [Compound 39] |  |  |  | did not exhibit significant cytotoxicity | Inhibition on sEH at 100 µM (%) (sEH [1]): N.I; inhibition at 50 µM ([2]; Mus musculus, RAW264.7, read-out: Inhibition of NO production at 50 µM (%)): 20.3%
16 | C[C@@H]1C[C@H]2[C@@H]3CCC4=CC(=O)C=C[C@]4(C)[C@@]3(F)[C@@H](O)C[C@]2(C)[C@@]1(O)C(=O)CO [Dexamethasone, reference compound] |  |  |  |  | IC50 ([2]; LPS-stimulated RAW264.7 cells): 10.5 ± 0.1 µM; IC50 [2, 4]: 10.5 ± 0.13 µM
17 | C[C@@H]1CC[C@]2(C(=O)O)CC[C@]3(C)C(=CC[C@@H]4[C@@]5(C)C[C@@H](O)[C@@H](O)C(C)(C)[C@@H]5CC[C@]43C)[C@@H]2[C@]1(C)O [Compound 38] | 39.5 ± 4.1% |  | 8.9% | did not exhibit significant cytotoxicity | 
18 | O=C(CO)c1ccc(O)cc1 [Compound 28] | 22.1 ± 0.9% |  | 6.2% | did not exhibit significant cytotoxicity | 

Continued, in another order:

Row | inhibition at 100 µM (sEH [1]) | IC50 (sEH [1]) | Compound | inhibition at 50 µM [2, 5] | Cytotoxicity in RAW 264.7 cells (MTT) (RAW 264.7 cells) | also measured
19 | 77.7 ± 2.6% | 33.1 ± 0.3 µM | CCCCOC(=O)[C@@]1(O)C[C@@H](O)[C@H](O)[C@H](OC(=O)/C=C/c2ccc(O)c(O)c2)C1 [Compound 5] | 53% | did not exhibit significant cytotoxicity | IC50 [2, 4]: 45.3 ± 1.4 µM
20 | 38.6 ± 0.2% |  | O=Cc1ccc(O)c(O)c1 [Compound 24] | 22.2% | did not exhibit significant cytotoxicity | 
21 | 68.3 ± 3.4% | 30.4 ± 0.8 µM | COC(=O)[C@@]1(O)C[C@@H](O)[C@H](O)[C@H](OC(=O)/C=C/c2ccc(O)c(O)c2)C1 [Compound 4] |  |  | Inhibition of NO production at 50 µM (%) [2, 6]: N.I
22 | 10.7 ± 3% |  | COc1cc(C(=O)O)cc(OC)c1O [Compound 23] | 14.1% |  | 
23 | 43 ± 1.1% |  | COc1cc(/C=C/C(=O)O)ccc1O [Compound 31] | 10.6% |  | 
24 | 74.3 ± 3.4% | 41.9 ± 1.2 µM | O=C(/C=C/c1ccc(O)c(O)c1)O[C@@H]1C[C@@](O)(C(=O)O)C[C@@H](O)[C@@H]1O [Compound 1] | 5.7% | did not exhibit significant cytotoxicity | 
25 | 21.3 ± 0.2% |  | COc1cc(C(=O)O)ccc1O [Compound 26] | 11.4% |  | 
26 |  | 6.8 ± 0.9 µM | Oc1ccc(/C=C/c2cc(O)cc(O)c2)cc1 [Compound 32] | 77.7% | did not exhibit significant cytotoxicity | IC50 [2, 4]: 30.6 ± 1.8 µM
27 |  | 9.4 ± 0.2 µM | COC(=O)C1(O)CC(O)C(OC(=O)C=Cc2ccc(O)c(O)c2)C(O)C1 (stereo not shown) [Compound 8] | 25.2% | did not exhibit significant cytotoxicity | Ki (sEH [3]): 13.7 µM
28 | 69.2 ± 0.9% | 50.8 ± 1.5 µM | O=C(C=Cc1ccc(O)c(O)c1)OC1C(O)CC(O)(C(=O)O)CC1O (stereo not shown) [Compound 7] | 10.7% | did not exhibit significant cytotoxicity | 
29 | 10.5 ± 3% |  | OC[C@H]1O[C@@H](OC[C@@H](O)c2ccc(O)cc2)[C@H](O)[C@@H](O)[C@@H]1O [Compound 35] | 15.9% | did not exhibit significant cytotoxicity | 
30 | 67.1 ± 3.4% | 60.7 ± 1.9 µM | COc1cc(/C=C/C(=O)O[C@@H]2C[C@@](O)(C(=O)O)C[C@@H](O)[C@@H]2O)ccc1O [Compound 3] | 26.1% | did not exhibit significant cytotoxicity | 
31 | 22.7 ± 3.9% |  | O=C1c2c(O)cc(O)cc2O[C@H](c2ccc(O)cc2)[C@H]1O[C@@H]1O[C@H](CO)[C@@H](O)[C@H](O)[C@H]1O [Compound 13] |  | did not exhibit significant cytotoxicity | Inhibition of NO production at 50 µM (%) [2, 6]: N.I
32 |  | 21 ± 0.4 µM | O=C(O)/C=C/c1ccc(O)c(O)c1 [Compound 30] | 21.5% | did not exhibit significant cytotoxicity | 
33 | 111 ± 1.9% | 14.7 ± 0.4 µM | COC(=O)[C@]1(O)C[C@@H](O)[C@@H](O)[C@H](OC(=O)/C=C/c2ccc(O)c(O)c2)C1 [Compound 6] | 1.8% |  | 
34 | 32.3 ± 2.7% |  | O=C(/C=C\c1ccc(O)cc1)O[C@@H]1C[C@@](O)(C(=O)O)C[C@@H](O)[C@@H]1O [Compound 9] |  | did not exhibit significant cytotoxicity | Inhibition of NO production at 50 µM (%) [2, 6]: N.I
35 | 17.5 ± 0.2% |  | COc1ccc(C(=O)O)cc1O [Compound 27] | 24% | did not exhibit significant cytotoxicity | 
36 | 4.4 ± 3.2% |  | O=C(/C=C/c1ccc(O)cc1)O[C@@H]1C[C@@](O)(C(=O)O)C[C@@H](O)[C@@H]1O [Compound 2] | 19.7% | did not exhibit significant cytotoxicity | 
37 | 39.7 ± 4.4% |  | O=C(O)/C=C/c1ccc(O)cc1 [Compound 29] | 13.4% |  | 
